The nature of data set [1]: Acute toxicity of MX (i.p.). The following applies: mice, single injection. As to the method: Three mice per group were injected (i.p.) with MX at doses of 1, 2, 4, 6, 10 and 15 mg/kg for the test of acute toxicity.
The test system of data set [2] is HCT116 xenograft. As to the kind of experiment: HCT116 xenograft tumor response in nude mice. The format is in vivo. The following applies: HCT116 xenograft; Table 2 doses: TMZ 120, MX 2, MX+TMZ 2/120 mg/kg; daily for 5 days.
Data set [3] relates to HCT116 cells. Briefly: Growth inhibition assay (MTT), HCT116. The format is cell-based, human. The following applies: HCT116; MX 6 mM plus H2O2 0-150 μM 1 hr. As to the method: In this experiment, a growth inhibition assay was carried out with H2O2, an oxidizing agent that mimics the effect of chemotherapeutic agents and radiation. Cells in the exponential phase were plated (1×10^4) in 24-well tissue culture plates. After attachment overnight, the cells were incubated with hydrogen peroxide (H2O2) (0-150 μM) or MX (6 mM) plus H2O2 for 1 hr. Five days after treatment, the media was discarded, and 100 μl of MTT (5 mg/ml in PBS) was added in 1 ml fresh media to each well for 4 hrs at 37° C. The MTT solution was then removed, and the formazan crystals were dissolved in 200 μl/well of DMSO for 20 min and changes in absorbance were determined at A540nm. Percentage growth inhibition was calculated by comparison of the A540nm reading from treated versus control cells.
The agents contemplated for combinations with MX in this example are agents which incorporate into DNA and are repaired by BER to form AP sites. Cell-growth inhibition was carried out with HCT116 cells to test MX-potentiated cytotoxicity of iododeoxyuridine (IUdR), which has been recognized as a radiosensitizing agent since the early 1960's.

Data set [4] deals with AP-endonuclease (APE). As to the kind of experiment: AP site cleavage by AP-endonuclease (APE). The class given is biochemical. As to the method: 2. AP sites cleavaged by AP-endonuclease (APE). […] The assay may be performed as follows (see also FIGS. 23A and B):
a. AP site is prepared by replacing single nucleoside with deoxyuridine in duplex oligonucleotides (40 mer).
b. Regular AP site is produced in the duplex oligonucleotides by human uracil DNA glycosylase (LIDGase, Trevigen, Gaithersburg, Md.) to remove the uracil residue.
c. To generate MX-adducted AP site substrates: the UDG-treated duplex oligonucleotides are mixed with 10 mM MX in buffer containing 10 mM KPO4, pH 7.1 and incubated at 37° C. After 30 min, the substrates are recovered by ethanol precipitation, lyophilized, resuspended in water, and stored at −20° C.
d. APE-cleavage reaction: DNA substrates containing either regular AP-sites or chemicalmodified AP sites are incubated with APE (Trevigen, Gaithersburg, Md.) for 30 min and reactants are precipitated with 100% cold ethanol, washed with 70% ethanol and resuspended in TE buffer. The reactants are resolved by denaturing 20% polyacrylamide gel electrophoresis and visualized by silver staining (Silver Staining Kit, Pharmacia Biotech).

The subject of data set [5] is DEtp cell line. Briefly: DEtp subline of DLD1. The class given is cell-based. The following applies: DEtp cell line. The source says:
We also investigated whether TMZ and MX-induced MX-AP sites may also act as poisons of topoisomerase II α (topo II), producing dual lethal targets. To analyze the effect of MX-AP site on topo II-mediated DNA cleavage, a position-specific MX-AP site was generated on topo II cleavage sites using oligonuleotides for cleavage assay. […] We also found prolonged induction of topo II and remarkable increase in DNA double strand breaks in cells treated with TMZ and MX compared to TMZ alone. Similar results were also observed in cells treated with etoposide but not with N-methyl-maleimide (a catalytic inhibitor of topo II and also an antagonizer of etoposide). Moreover, the potentiation of TMZ by MX was decreased in DEtp cell line that was a subline derived from DLD1 and 5-fold more resistant to etoposide compared to the parental cell line.

The nature of data set [6]: Toxicity evaluation in mice bearing SW480 xenograft. To be noted: Table 1 doses.
Experimental: Tumors in Nude Mice. Tumor cells (5×10^6) were injected into flanks of female athymic HSD nude mice, at 6-8 weeks of age. The tumors were measured with calipers using the National Cancer Institute formula: V=L(mm)×I^2 (mm)/2 where L is the largest diameter and I is the smallest diameter of the tumor. […] Toxicity Evaluation. Toxicity after treatment was evaluated by body weight measurements and peripheral WBC counting. Body weight was measured three times weekly from the first treatment until 2 weeks after the end of treatment. The weight loss was expressed as a percentage of the initial weight (initial weight−lowest weight/initial weight×100%).
Data set [7] concerns SW480 cells. As to the kind of experiment: Flow cytometry cell cycle distribution and apoptosis, SW480. In general terms: In flow cytometry, cells or beads pass a laser one at a time.
Experimental: Median Effect Analysis (MEA). MEA was used to determine the dose-response interactions between TMZ and either MX or PD 128763. Drugs were combined at the ratio of the IC50 values for either TMZ and MX or TMZ and PD 128763 as determined by survival/concentration curves. The combination was compared to the cytotoxicity of each drug alone in every experiment. The combination index (CI) was determined from colony-forming assays at increasing levels of cell killing, using analysis of multiple drug interaction program (Biosoft, Cambridge, United Kingdom) developed based on method of Chou and Talalay (Chou and Talalay “Quantitative analysis of dose-effect relationship: the combined effects of multiple drugs on enzyme inhibitors” In: G. Weber (ed.) Advances in Enzyme Regulation, pp. 27-55, New York: Pergamon Press, 1983). CI values of less than or grater than 1 indicate synergy and antagonism, respectively, whereas a CI value of 1 indicates additivity of the drugs. Flow Cytometry for Cell Cycle Distribution Analysis. For cell cycle analysis, 10^6 cells were plated in 100-mm tissue culture dishes and exposed to MX (6 mM)/PD128763 (100 μM) or MX (6 mM)/PD128763 (100 μM) plus TMZ (300 μM) at 37° C. After 24 h-72 h of culture, cells were fixed in 80% ethanol and DNA was stained with 20 μg/ml propidium iodide. DNA fluorescence of PI-stained cells was measured with an Elite ESP flow cytometer/cell sorter (Coulter, Miami, Fla.). Cell cycle distribution was analyzed with Modfit 5.2 program (Verity software, Topsham, Mass.) at least 10,000 cells per data point. Western Blotting for PARP Cleavage Detection. Cell extracts were resolved by SDS-PAGE (12% polyacrylamide) in a Bio-Rad minigel apparatus at 150 V for 1 hr. […] The tumors were measured with calipers using the National Cancer Institute formula: V=L(mm)×I^2 (mm)/2 where L is the largest diameter and I is the smallest diameter of the tumor. […] The relative tumor volume (V/V0) was calculated by dividing the measured tumor volume (V) by the initial tumor volume (V0) at day 0. Tumor responses were quantified by tumor regrowth delay. Tumor growth delays were calculated according to: tumor growth delay=T2XC2X, where T2X and C2X represent the number of days treated and control tumors take to double in size from the day of treatment, respectively. […] Toxicity after treatment was evaluated by body weight measurements and peripheral WBC counting. Body weight was measured three times weekly from the first treatment until 2 weeks after the end of treatment. The weight loss was expressed as a percentage of the initial weight (initial weight−lowest weight/initial weight×100%). Peripheral WBCs were monitored 5 days after the end of treatment compared with WBCs of control mice.
Data set [8] concerns AP sites in SW480 cells. Briefly: AP sites measured with ARP reagent and S phase in SW480 cells, prolonged MX exposure. The following applies: MX and TMZ over 72 h.
Text: Cell lines used in this study include SW480 (MMR wt, p53 mut), HCT116 (hMLH1 mut, p53 wt) and HCT15 (hMSH6 mut, p53 mut). We measured AP sites using ARP reagent, noting that ARP and MX compete for binding to AP sites. […] It is likely that cytotoxicity elicited by both topol/II inhibitors and MX-AP sites is due to DNA cleavable complexes, and is thus dependent on the level of topo I/II expression.

SMILES strings stand for the structures.

`CON` [MX, methoxyamine]: the lethal dose in data set [1] came to 15 mg/kg. Also, in data set [2], the “Tumor growth delays” value is 2.2 ± 0.4 days. Also, the “sensitivity to killing induced by H2O2” value in data set [3] is on record as “significantly increased sensitivity”. Also, in data set [4], the “cleavage of modified AP sites by APE” value is reported as “resistant to cleavage”. The “potentiation of TMZ by MX” value in data set [5] is “decreased”. The “Toxicity (max. BW loss)” value in data set [6] is recorded as 0%. Moreover, the “effect of modifier alone on cell cycle distribution” value in data set [7] is on record as “did not affect”. Moreover, the “AP sites MX bound” value in data set [8] is reported as 80%.
